Results reported in ChEMBL document CHEMBL5528047, “A Potent SOS1 PROTAC Degrader with Synergistic Efficacy in Combination with KRASG12C Inhibitor” (J Med Chem, 2024).
The source made the active and inactive calls. No cut-off for these calls is given here.

Key:
K562 = experiment: Downregulation of phosphorylated-MEK level in human K562 cells at 0.3 to 3 uM incubated for 24 hrs by Western blotting analysis; assay type: functional, cell-based; conditions: dose 0.3-3 µM
[1] = target: T1, Son of sevenless homolog 1 (Homo sapiens) (UniProt Q07889); experiment: Induction of SOS1 degradation in human NCI-H358 cells at 1 uM measured upto 72 hrs by Western blotting analysis; assay type: cell-based
T1 sequence (whole entry): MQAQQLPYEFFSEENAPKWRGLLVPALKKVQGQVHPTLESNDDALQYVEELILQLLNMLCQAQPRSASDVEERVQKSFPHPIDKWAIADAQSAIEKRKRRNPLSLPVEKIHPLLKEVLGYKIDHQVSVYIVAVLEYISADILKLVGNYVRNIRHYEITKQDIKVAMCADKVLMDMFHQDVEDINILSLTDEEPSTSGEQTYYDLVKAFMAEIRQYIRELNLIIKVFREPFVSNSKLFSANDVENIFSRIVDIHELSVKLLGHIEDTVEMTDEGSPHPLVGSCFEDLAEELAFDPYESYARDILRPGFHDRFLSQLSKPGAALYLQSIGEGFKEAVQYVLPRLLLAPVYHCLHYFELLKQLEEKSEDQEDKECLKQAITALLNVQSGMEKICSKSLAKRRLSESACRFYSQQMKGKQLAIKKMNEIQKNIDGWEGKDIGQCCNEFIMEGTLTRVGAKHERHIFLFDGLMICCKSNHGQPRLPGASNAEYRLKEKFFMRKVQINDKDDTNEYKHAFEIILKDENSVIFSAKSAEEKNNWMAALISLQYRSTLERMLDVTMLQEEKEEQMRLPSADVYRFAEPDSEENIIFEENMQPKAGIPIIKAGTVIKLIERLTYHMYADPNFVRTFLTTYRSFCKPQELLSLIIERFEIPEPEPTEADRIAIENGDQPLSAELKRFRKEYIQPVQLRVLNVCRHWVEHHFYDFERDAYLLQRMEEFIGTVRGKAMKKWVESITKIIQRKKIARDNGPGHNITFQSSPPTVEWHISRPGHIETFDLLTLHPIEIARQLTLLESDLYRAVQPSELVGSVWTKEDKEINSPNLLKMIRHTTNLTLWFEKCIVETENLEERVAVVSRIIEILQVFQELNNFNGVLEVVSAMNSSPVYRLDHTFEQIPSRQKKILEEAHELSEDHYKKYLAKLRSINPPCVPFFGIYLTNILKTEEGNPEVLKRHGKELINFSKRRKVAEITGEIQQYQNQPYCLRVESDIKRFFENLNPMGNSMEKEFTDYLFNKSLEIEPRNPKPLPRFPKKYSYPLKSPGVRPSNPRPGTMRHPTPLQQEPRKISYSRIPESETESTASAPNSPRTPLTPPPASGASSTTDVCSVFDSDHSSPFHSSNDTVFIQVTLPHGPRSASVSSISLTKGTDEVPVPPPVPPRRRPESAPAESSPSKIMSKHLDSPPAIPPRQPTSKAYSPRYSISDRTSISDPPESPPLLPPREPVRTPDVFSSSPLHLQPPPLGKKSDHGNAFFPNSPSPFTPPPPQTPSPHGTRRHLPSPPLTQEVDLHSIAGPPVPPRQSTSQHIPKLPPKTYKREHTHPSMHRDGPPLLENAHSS

NCI-H358 = experiment: Inhibition of ERK phosphorylation in human NCI-H358 cells at 1 uM measured after 24 to 72 hrs in presence of AMG510 by Western blotting analysis; assay type: cell-based; conditions: time 24-72 hrs
[2] = target: von Hippel-Lindau disease tumor suppressor/Son of sevenless homolog 1 (Homo sapiens, UniProt Q07889+P40337); experiment: Protac activity at VHL/SOS1 in human K562 cells assessed as SOS1 degradation incubated for 24 hrs by Western blotting analysis; assay type: cell-based

COc1cc2nc(C)nc(N[C@H](C)c3cc(N)cc(C(F)(F)F)c3)c2cc1OCCCCC(=O)N[C@H](C(=O)N1C[C@H](O)C[C@H]1C(=O)NCc1ccc(-c2scnc2C)cc1)C(C)(C)C
Activity (K562): Active
Activity [1]: Active
inhibition (NCI-H358): Active
Activity [2]: Dose-Dependent Effect
DC50 [2]: 130 nM
